Experimental findings from patent publication US8633315B2, “Substituted hydroxyethyl amine compounds as beta-secretase modulators and methods of use” (Amgen Inc., priority 2007, dated 2014) are described below.

Where two headings read alike, the source gives them in different places. Some results are limits rather than exact numbers.

One data set has as its target BACE1 (Homo sapiens, UniProt P56817). As to the kind of experiment: In vitro enzymatic BACE FRET (fluorescence resonance energy transfer) assay. The class given is biochemical. The essentials: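 Cleavage of a quenched peptide FRET substrate (50 nM) in 0.05 M acetate pH 4.2, 10% DMSO, 100 uM genapol, 1 h incubation. Reaction stopped by Tris neutralization; fluorescence read at excitation 488 nm / […].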

In data set [1] the test system is Cells stably expressing Amyloid Precursor Protein (APP). Kind of data set: In vitro BACE cell-based assay (HEK cell assay): Aβ40 in conditioned medium by sandwich ELISA. A digest of the protocol:
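APP-stably-expressing cells were grown 24 h in DMEM/10% FBS, then treated for 24 h with 10-point doses starting at 100 μM or 10 μM, at 0.1% DMSO final. Aβ40 in conditioned medium was measured by sandwich ELISA (pAb40 capture, biotinylated 6E10 detection, europium time-resolved fluorescence); IC50 from percent inhibition.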

The next data set has as its system Abeta peptide. Kind of data set: In vivo inhibition of beta-secretase: Abeta peptide in CSF and brain after oral dosing. To be noted: Rattus norvegicus, po, orally dosed at about 30 mg/kg, CSF, read-out: reduction of Abeta peptide in the CSF of the rat. The text has this: In Vivo Inhibition of Beta-Secretase
Several animal models, including mouse, rat, dog, and monkey, may be used to screen for inhibition of beta-secretase activity in vivo following administration of a test compound sample. Animals used in this invention can be wild type, transgenic, or gene knockout animals. For example, the Tg2576 mouse model, prepared and conducted as described in Hsiao et al., 1996, Science 274, 99-102, and other non-transgenic or gene knockout animals are useful to analyze in vivo inhibition of Amyloid beta peptide (Abeta) production in the presence of inhibitory test compounds. Generally, 2 to 18 month old Tg2576 mice, gene knockout mice or non-transgenic animals are administered test compounds formulated in vehicles, such as cyclodextran, phosphate buffers, hydroxypropyl methylcellulose or other suitable vehicles. […] A separate group of animals receive 2% hydroxypropyl methylcellulose, 1% Tween80 alone, containing no test compound, and serve as a vehicle-control group. At the end of the test period, animals are sacrificed and brain tissues, plasma or cerebrospinal fluid are collected. Brains are either homogenized in 10 volumes (w/v) of 0.2% diethylamine (DEA) in 50 mM NaCl (Best et al., 2005, Journal of Pharmacology and Experimental Therapeutics, 313, 902-908), or in 10 volumes of 0.5% TritonX-100 in Tris-buffered saline (pH at about 7.6). Homogenates are centrifuged at 355,000 g, 4° C. for 30 minutes. CSF or brain supernatants are then analyzed for the presence of Abeta peptide by specific sandwich ELISA assays based on ECL (Electrochemiluminescence) technology. For example, rat Abeta40 is measured using biotinylated-4G8 (Signet) as a capture antibody and Fab40 (an in-house antibody specific to the C-terminal of Abeta40) as a detection antibody. For example, 4 hours after administration of 30 mg/kg oral dose of the test compound in 2% hydroxypropyl methylcellulose, 1% Tween80 (pH2.2) to 200 g male Sprague Dawley rats, Abeta peptide levels are measured for reduction by X % and Y % in cerebrospinal fluid and brain, respectively, when compared to the levels measured in the vehicle-treated or control […].
Actual vehicles used: Oral: 2% HPMC, 1% Tween80, pH 2.2
• IV: 5% EtOH, 45% Propylene glycol in 5% Dextrose

The next data set has as its target CYP3A (Homo sapiens, UniProt P08684). As to the kind of experiment: CYP3A inhibition assay (midazolam, pooled human liver microsomes). To be noted: microsomes. It is filed as in vitro ADME. (In general: Microsomes from liver hold many membrane-bound enzymes, among them those of drug oxidation.)
The nature of data set [2]: Microsomal stability assay, human liver microsomes. The class given is in vitro ADME. An excerpt: (§1) Microsomal Stability Assay
Data set [3] is described as follows: Microsomal stability assay, rat liver microsomes. The class given is in vitro ADME.
Excerpt: as §1

Sequence of BACE1 (P56817 46-501, species assumed): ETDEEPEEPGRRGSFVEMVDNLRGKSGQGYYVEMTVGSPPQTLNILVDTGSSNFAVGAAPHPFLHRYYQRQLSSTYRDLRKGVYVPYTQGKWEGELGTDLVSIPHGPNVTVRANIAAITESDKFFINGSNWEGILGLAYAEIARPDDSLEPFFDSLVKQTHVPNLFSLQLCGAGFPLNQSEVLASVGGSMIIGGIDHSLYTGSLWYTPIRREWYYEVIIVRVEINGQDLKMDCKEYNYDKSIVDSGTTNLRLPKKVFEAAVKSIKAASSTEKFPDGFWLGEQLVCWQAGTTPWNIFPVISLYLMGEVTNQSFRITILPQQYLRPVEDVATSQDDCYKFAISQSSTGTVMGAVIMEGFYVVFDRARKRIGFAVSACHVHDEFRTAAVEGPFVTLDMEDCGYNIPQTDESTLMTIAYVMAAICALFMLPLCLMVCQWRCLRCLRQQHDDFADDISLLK
Sequence of CYP3A (P08684 2-503): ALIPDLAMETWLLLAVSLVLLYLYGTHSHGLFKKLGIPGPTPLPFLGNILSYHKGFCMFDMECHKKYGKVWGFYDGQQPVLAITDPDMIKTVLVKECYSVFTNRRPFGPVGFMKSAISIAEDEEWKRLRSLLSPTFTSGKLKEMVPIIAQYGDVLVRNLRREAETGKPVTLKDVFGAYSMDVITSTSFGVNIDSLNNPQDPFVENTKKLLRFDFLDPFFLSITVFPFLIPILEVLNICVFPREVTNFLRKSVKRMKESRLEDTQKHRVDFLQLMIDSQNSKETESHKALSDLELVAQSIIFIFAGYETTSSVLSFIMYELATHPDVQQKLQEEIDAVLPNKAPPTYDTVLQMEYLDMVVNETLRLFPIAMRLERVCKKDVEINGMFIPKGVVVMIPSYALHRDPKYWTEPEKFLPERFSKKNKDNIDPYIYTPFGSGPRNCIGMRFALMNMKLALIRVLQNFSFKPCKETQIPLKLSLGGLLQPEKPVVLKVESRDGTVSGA

On to `C=CCC(NC(=O)COC)C(O)CNC1CC2(CC(O)C2)Oc2ncc(CC(C)(C)C)cc21` [Example 107, N-((1S)-1-((1R)-2-(((1s,3S,4′S)-6′-(2,2-dimethylpropyl)-3-hydroxy-3′,4′-dihydrospiro[cyclobutane-1,2′-pyrano[2,3-b]pyridin]-4′-yl)amino)-1-hydroxyethyl)-3-buten-1-yl)-2-(methyloxy)acetamide], for which the IC50 was determined as 16 nM at BACE1 and 35 nM in data set [1] (Homo sapiens, HEK293, 24 h, Aβ40 in conditioned medium after 24 h incubation). The inhibition in vivo at 30 mg/kg with Abeta peptide is at least 5%.
On to “N-((1S)-1-((1R)-2-(((4′S)-6′-(2,2-dimethylpropyl)-8′-(1-methyl-1H-imidazol-2-yl)-3′,4′-dihydrospiro[cyclobutane-1,2′-pyrano[2,3-c]pyridin]-4′-yl)amino)-1-hydroxyethyl)-3-buten-1-yl)-2-methoxyacetamide [Example 239]”, for which the IC50 on BACE1 (read-out: BACE 1 FRET assay) was 208 nM; in data set [1], 1500 nM; against CYP3A, 1100 nM. In addition, in data set [2], the HLM came out at 311 µL/min/mg. Also, the RLM in data set [3] stood at 340 µL/min/mg.
